From the SangsterLogP compilation

Assays:
[1] = method code SF, from PMID: 8453740
[2] = method code SF-W, from PMID: 8453740

SMILES	logP [1]	also measured
CCCOc1cccc(-c2cn(C)cc(-c3ccccc3)c2=O)c1	2.98	–
COc1cccc(-c2cn(C)cc(-c3ccccc3)c2=O)c1	1.94	–
CCCCN(C)C(=O)c1cccc(Oc2ccccc2)c1	3.89	–
CNC1=C(c2cccc(C(F)(F)F)c2)C(=O)C(c2ccccc2)O1 (stereo not drawn)	3.22	–
CNc1cnn(-c2cccc(C(F)(F)F)c2)c(=O)c1Cl	–	logP [2]: 2.52
CCCCCOc1cccc(-c2cn(C)cc(-c3ccccc3)c2=O)c1	4.07	–
CN(C)C=C1OC(=O)C(C#N)=C1c1ccccc1	1.07	–
CCCCCCOc1cccc(-c2cn(C)cc(-c3ccc(Cl)cc3)c2=O)c1	–	logP: 5.23
CCCN(C)C(=O)c1cccc(Oc2ccccc2)c1	3.44	–
CCN(C)C(=O)c1cccc(Oc2ccccc2)c1	2.98	–
Cc1ccc(C)c(Oc2cccc(C(=O)NC(C)C)c2)c1	4.35	–
CCCCCCOc1cccc(-c2cn(C)cc(-c3ccccc3)c2=O)c1	4.59	–
Cc1ccc(C)c(Oc2cccc(C(=O)NC(C)(C)C)c2)c1	4.78	–
CCCCCN(C)C(=O)c1cccc(Oc2ccccc2)c1	4.43	–
CNC(=O)c1cccc(Oc2ccccc2)c1	2.86	–
CNC(=O)c1cccc(Oc2cc(C)ccc2C)c1	3.76	–
CN(C)C(=O)c1cccc(Oc2ccccc2)c1	2.57	–
CCCCCCN(C)C(=O)c1cccc(Oc2ccccc2)c1	–	logP: 5.01
